Data on 1 molecule can be found in patent US20210338728A1, “METHODS AND COMPOSITIONS FOR THE EXPANSION AND USE OF ALLOGENEIC GAMMA/DELTA-T CELLS” (Phosphogam, Inc., priority 2018, published 2021).

The test system of this assay is γδ-T cells. The assay is described as follows: Ex vivo expansion of human γδ-T cells from healthy donor PBMC with C-HDMPP and IL-2, flow cytometry at day 21. The class given is cell-based. The text has this:
Peripheral blood mononuclear cells (PBMC) were isolated from peripheral blood obtained by venipuncture from a healthy individual. Fresh blood was collected using standard aseptic technique. PBMC were isolated utilizing a standard density gradient centrifugation method. PBMC were washed in PBS, then resuspended in complete RPMI-1640 supplemented with 10% characterized fetal bovine serum and PCN+streptomycin.
Cell cultures were initiated by seeding PBMC into tissue culture flasks to which recombinant human IL-2 was added. γδ-T cell expansion was initiated by the addition of C-HDMPP. Cultures were maintained at 37° C., 5% CO2 in incubators situated within a BSL2 containment environment. Fresh media was added as needed to keep cell concentration at approximately 1×10^6 cells/ml. Human IL-2 was added every 5 days. Cultures were maintained for 21 days at which time they were analyzed by flow cytometry. […] At 100 nM C-HDMPP the cultures were ≥96% pure γδ-T cells with viability ≥96%.

Where [1] appears, read: 100 nM C-HDMPP, 21 days of culture with IL-2, flow cytometry.

For the molecule `C/C(=C\CCP(=O)(O)OP(=O)(O)O)CO` [C-HDMPP], under setting [1], the “purity of γδ-T cells in the cultures” value was at least 96% and the “viability of the cultures” value is at least 96%. Also, the “γδ-T cell growth (expansion) versus concentration” value (nanomolar concentrations, 21 days, FIG. 1) is on record as “can be titrated to promote optimal γδ-T cell growth while avoiding overstimulation”.
